Assay results taken from ChEMBL document CHEMBL1201862, “PubChem BioAssay data set” (2004).
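Following 48 hours of exposure in 96-well plates, responses at five concentrations were used to interpolate endpoints linearly. Abbreviation: GI50, concentration required for 50% inhibition of growth.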 The source made the active and inactive calls. No stated cut-off is given here; in the data, active = GI50 up to about 1.1 µM and inactive = higher.

What was measured:
Test in all cases: NCI tumour cell line growth inhibition, 48 h
SR = tested on: SR
HL-60 = tested on: HL-60
LOX IMVI = tested on: LOX IMVI
SK-MEL-28 = tested on: SK-MEL-28
SK-MEL-2 = tested on: SK-MEL-2
SF-268 = tested on: SF-268
SNB-75 = tested on: SNB-75
RXF 393 = tested on: RXF 393
HCT-116 = tested on: HCT-116
OVCAR-4 = tested on: OVCAR-4
MDA-MB-231 = tested on: MDA-MB-231
NCI-H522 = tested on: NCI-H522
NCI-H460 = tested on: NCI-H460
HOP-62 = tested on: HOP-62
UO-31 = tested on: UO-31
T47D = tested on: T47D
HOP-92 = tested on: HOP-92
SN12C = tested on: SN12C
DU-145 = tested on: DU-145
RPMI-8226 = tested on: RPMI-8226

| Compound | GI50 (SR) | GI50 (HL-60) | GI50 (LOX IMVI) | GI50 (SK-MEL-28) | GI50 (SK-MEL-2) | GI50 (SF-268) | GI50 (SNB-75) | GI50 (RXF 393) | GI50 (HCT-116) | GI50 (OVCAR-4) | GI50 (MDA-MB-231) | GI50 (NCI-H522) | GI50 (NCI-H460) | GI50 (HOP-62) | GI50 (UO-31) | GI50 (T47D) | GI50 (HOP-92) | GI50 (SN12C) | GI50 (DU-145) | GI50 (RPMI-8226) |
| --- | --- | --- | --- | --- | --- | --- | --- | --- | --- | --- | --- | --- | --- | --- | --- | --- | --- | --- | --- | --- |
| c1cncc(CSc2ncnc3[nH]cnc23)c1 | > 100 µM (inactive) | > 100 µM (inactive) | > 100 µM (inactive) | > 100 µM (inactive) | > 100 µM (inactive) | > 100 µM (inactive) | > 100 µM (inactive) | > 100 µM (inactive) | > 100 µM (inactive) | > 100 µM (inactive) | > 100 µM (inactive) | > 100 µM (inactive) | > 100 µM (inactive) | > 100 µM (inactive) | > 100 µM (inactive) | > 100 µM (inactive) | > 100 µM (inactive) | > 100 µM (inactive) | > 100 µM (inactive) | – |
| CCOC(=O)C1=C(C#N)S(=O)(=O)c2c(oc(C)c2C)N1 | > 100 µM (inactive) | – | > 100 µM (inactive) | > 100 µM (inactive) | > 100 µM (inactive) | > 100 µM (inactive) | > 100 µM (inactive) | – | > 100 µM (inactive) | > 100 µM (inactive) | > 100 µM (inactive) | > 100 µM (inactive) | > 100 µM (inactive) | > 100 µM (inactive) | > 100 µM (inactive) | > 100 µM (inactive) | > 100 µM (inactive) | > 100 µM (inactive) | > 100 µM (inactive) | > 100 µM (inactive) |
| O=C1CCCCCC1CC(Sc1ccccc1)Sc1ccccc1 (stereo not given) | 32.8 µM (inactive) | 21 µM (inactive) | > 100 µM (inactive) | > 100 µM (inactive) | > 100 µM (inactive) | > 100 µM (inactive) | 49.3 µM (inactive) | > 100 µM (inactive) | – | 96.4 µM (inactive) | > 100 µM (inactive) | 65.3 µM (inactive) | 64.7 µM (inactive) | > 100 µM (inactive) | 88.5 µM (inactive) | 14.4 µM (inactive) | > 100 µM (inactive) | – | > 100 µM (inactive) | 37.6 µM (inactive) |
| COc1cc2c(c(OC)c1OC)-c1ccc(OC)c(=O)cc1[C@@H](NC(=O)c1ccccc1)CC2 | 0.155 µM (active) | < 0.01 µM (active) | 0.0142 µM (active) | 1.86 µM (inactive) | 0.012 µM (active) | 0.0154 µM (active) | < 0.0327 µM (active) | 0.0234 µM (active) | 0.0126 µM (active) | – | 0.0151 µM (active) | 0.0114 µM (active) | – | 0.0379 µM (active) | 0.449 µM (active) | 58.3 µM (inactive) | 0.0173 µM (active) | 0.0146 µM (active) | 0.0199 µM (active) | 0.0608 µM (active) |
| O=C1C(NS(=O)(=O)c2ccccc2)=C(N(Cc2ccccc2)Cc2ccccc2)C(=O)c2ccccc21 | 22.7 µM (inactive) | 20.7 µM (inactive) | 65.3 µM (inactive) | 40.9 µM (inactive) | 20.8 µM (inactive) | 88.1 µM (inactive) | 70.8 µM (inactive) | 15.5 µM (inactive) | 36.7 µM (inactive) | 19.5 µM (inactive) | > 100 µM (inactive) | – | 36.6 µM (inactive) | 41 µM (inactive) | 19.2 µM (inactive) | 32.1 µM (inactive) | 36.3 µM (inactive) | 41.5 µM (inactive) | 48.1 µM (inactive) | 18.8 µM (inactive) |
| Cc1nnc2n(c1=O)CCCN2C | > 100 µM (inactive) | > 100 µM (inactive) | > 100 µM (inactive) | > 100 µM (inactive) | > 100 µM (inactive) | > 100 µM (inactive) | > 100 µM (inactive) | > 100 µM (inactive) | > 100 µM (inactive) | > 100 µM (inactive) | > 100 µM (inactive) | – | > 100 µM (inactive) | > 100 µM (inactive) | > 100 µM (inactive) | > 100 µM (inactive) | > 100 µM (inactive) | > 100 µM (inactive) | > 100 µM (inactive) | > 100 µM (inactive) |
| CC1=NN(c2cccc(Cl)c2)C2(SCC(=O)N2c2nc3ccccc3s2)/C1=C\c1cccs1 (stereo not given) | 11.7 µM (inactive) | 27.9 µM (inactive) | 23.8 µM (inactive) | 29.4 µM (inactive) | 18.8 µM (inactive) | 18.9 µM (inactive) | 17.5 µM (inactive) | 20.3 µM (inactive) | 20.6 µM (inactive) | 21 µM (inactive) | 30.2 µM (inactive) | 21.2 µM (inactive) | 27.2 µM (inactive) | 28.2 µM (inactive) | 22.4 µM (inactive) | 24.9 µM (inactive) | 22.2 µM (inactive) | – | 46.5 µM (inactive) | 17.7 µM (inactive) |
| O=c1[nH]c(=O)n(COC(CO)CO)cc1-c1ccccc1 | > 100 µM (inactive) | > 100 µM (inactive) | > 100 µM (inactive) | > 100 µM (inactive) | > 100 µM (inactive) | > 100 µM (inactive) | > 100 µM (inactive) | – | > 100 µM (inactive) | > 100 µM (inactive) | > 100 µM (inactive) | > 100 µM (inactive) | > 100 µM (inactive) | > 100 µM (inactive) | > 100 µM (inactive) | > 100 µM (inactive) | > 100 µM (inactive) | > 100 µM (inactive) | > 100 µM (inactive) | > 100 µM (inactive) |
| c1cc2c3ccsc3c3sccc3c2s1 | 24.7 µM (inactive) | 46.9 µM (inactive) | > 100 µM (inactive) | > 100 µM (inactive) | 10.6 µM (inactive) | > 100 µM (inactive) | 23.1 µM (inactive) | > 100 µM (inactive) | > 100 µM (inactive) | > 100 µM (inactive) | > 100 µM (inactive) | – | > 100 µM (inactive) | 21.4 µM (inactive) | > 100 µM (inactive) | > 100 µM (inactive) | > 100 µM (inactive) | > 100 µM (inactive) | > 100 µM (inactive) | > 100 µM (inactive) |
| COc1ccc(C2SC(=N)Nc3c2c(C)nn3C(=O)c2ccccc2O)cc1OC (stereo not given) | 4.75 µM (inactive) | 2.16 µM (inactive) | 4.58 µM (inactive) | 9.51 µM (inactive) | 4.26 µM (inactive) | 5.32 µM (inactive) | 3.09 µM (inactive) | 3.61 µM (inactive) | 2.37 µM (inactive) | 7.93 µM (inactive) | 7.5 µM (inactive) | – | 4.68 µM (inactive) | 6.92 µM (inactive) | 4.61 µM (inactive) | 3.18 µM (inactive) | 1.08 µM (active) | 5.98 µM (inactive) | 4.3 µM (inactive) | 6.28 µM (inactive) |
| O=c1c2cc([N+](=O)[O-])ccc2oc2nc3n(c(=O)c12)CCCS3 | > 100 µM (inactive) | – | – | > 100 µM (inactive) | > 100 µM (inactive) | > 100 µM (inactive) | 64.9 µM (inactive) | > 100 µM (inactive) | > 100 µM (inactive) | > 100 µM (inactive) | > 100 µM (inactive) | > 100 µM (inactive) | > 100 µM (inactive) | 40.9 µM (inactive) | > 100 µM (inactive) | > 100 µM (inactive) | > 100 µM (inactive) | > 100 µM (inactive) | > 100 µM (inactive) | > 100 µM (inactive) |
| Nc1ccc2c(O)cc(O)nc2n1 | > 100 µM (inactive) | > 100 µM (inactive) | – | > 100 µM (inactive) | > 100 µM (inactive) | > 100 µM (inactive) | > 100 µM (inactive) | > 100 µM (inactive) | > 100 µM (inactive) | > 100 µM (inactive) | > 100 µM (inactive) | > 100 µM (inactive) | > 100 µM (inactive) | – | > 100 µM (inactive) | > 100 µM (inactive) | > 100 µM (inactive) | > 100 µM (inactive) | > 100 µM (inactive) | > 100 µM (inactive) |
| CC[C@]1(Cc2ccc(OC)c(OC)c2)C=[N+]([O-])O[C@H](OC2CCCC2(c2ccccc2)c2ccccc2)[C@@H]1OC(=O)C(C)(C)C (stereo not given in full) | 7.93 µM (inactive) | 2.18 µM (inactive) | 1.95 µM (inactive) | 2.09 µM (inactive) | 2.66 µM (inactive) | 3.15 µM (inactive) | 3.63 µM (inactive) | 1.63 µM (inactive) | 1.98 µM (inactive) | 3.27 µM (inactive) | 5.56 µM (inactive) | 1.61 µM (inactive) | 2.69 µM (inactive) | 2.49 µM (inactive) | 1.77 µM (inactive) | 2.49 µM (inactive) | 4.14 µM (inactive) | 3.07 µM (inactive) | 2 µM (inactive) | – |
| C1CSCCSCCS1 | > 100 µM (inactive) | > 100 µM (inactive) | > 100 µM (inactive) | > 100 µM (inactive) | – | > 100 µM (inactive) | > 100 µM (inactive) | > 100 µM (inactive) | > 100 µM (inactive) | > 100 µM (inactive) | > 100 µM (inactive) | > 100 µM (inactive) | > 100 µM (inactive) | > 100 µM (inactive) | > 100 µM (inactive) | > 100 µM (inactive) | > 100 µM (inactive) | > 100 µM (inactive) | > 100 µM (inactive) | > 100 µM (inactive) |
| CC(C(=O)ON1C(=O)CCC1=O)c1ccc(C(=O)c2ccccc2)s1 (stereo not given) | > 100 µM (inactive) | – | > 100 µM (inactive) | > 100 µM (inactive) | > 100 µM (inactive) | > 100 µM (inactive) | > 100 µM (inactive) | > 100 µM (inactive) | > 100 µM (inactive) | > 100 µM (inactive) | > 100 µM (inactive) | > 100 µM (inactive) | > 100 µM (inactive) | > 100 µM (inactive) | > 100 µM (inactive) | > 100 µM (inactive) | > 100 µM (inactive) | > 100 µM (inactive) | > 100 µM (inactive) | > 100 µM (inactive) |
